{
  "source": "paper doi:10.1101/2025.01.10.632200",
  "about": "“Chemoproteomic Profiling of C. albicans for Characterization of Anti-fungal Kinase Inhibitors” (bioRxiv, 2025)",
  "format_in_all_cases": "biochemical",
  "key": {"Yck2 [1]": {"target": "T1, Yck2 (Candida albicans, UniProt A0A1D8PKB4)", "T1 sequence (A0A1D8PKB4 entry or part of it)": "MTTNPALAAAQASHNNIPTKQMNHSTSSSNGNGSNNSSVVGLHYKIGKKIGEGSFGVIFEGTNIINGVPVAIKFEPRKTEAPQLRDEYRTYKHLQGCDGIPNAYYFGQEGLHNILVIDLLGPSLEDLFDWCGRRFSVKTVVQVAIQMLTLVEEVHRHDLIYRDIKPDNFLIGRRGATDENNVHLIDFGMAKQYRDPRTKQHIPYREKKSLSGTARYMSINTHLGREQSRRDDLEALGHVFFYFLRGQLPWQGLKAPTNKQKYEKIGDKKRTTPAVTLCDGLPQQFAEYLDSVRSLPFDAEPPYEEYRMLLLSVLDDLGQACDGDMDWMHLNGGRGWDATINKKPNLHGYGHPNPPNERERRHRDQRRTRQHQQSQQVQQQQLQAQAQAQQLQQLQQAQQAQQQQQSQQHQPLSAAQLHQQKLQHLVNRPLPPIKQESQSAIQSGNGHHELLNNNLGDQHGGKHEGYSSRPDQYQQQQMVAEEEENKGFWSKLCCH", "assay": "purified enzyme kinase assay; also NanoBRET ([…])"}, "p38α": {"target": "T2, p38α (Homo sapiens, UniProt Q16539)", "T2 construct": "gene MAPK14", "T2 sequence (Q16539 2-360)": "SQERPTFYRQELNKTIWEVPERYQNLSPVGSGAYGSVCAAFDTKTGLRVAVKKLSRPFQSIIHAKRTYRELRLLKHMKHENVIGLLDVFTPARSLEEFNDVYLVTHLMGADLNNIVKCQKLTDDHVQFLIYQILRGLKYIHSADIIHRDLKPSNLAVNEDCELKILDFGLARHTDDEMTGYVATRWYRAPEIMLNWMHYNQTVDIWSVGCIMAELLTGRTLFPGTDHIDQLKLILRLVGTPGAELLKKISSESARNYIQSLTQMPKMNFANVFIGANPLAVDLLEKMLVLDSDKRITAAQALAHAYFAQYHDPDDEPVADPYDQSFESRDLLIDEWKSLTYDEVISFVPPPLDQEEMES", "assay": "purified enzyme kinase assay; also NanoBRET ([…])"}, "CK1α": {"target": "T3, CK1α (Homo sapiens, UniProt P48729)", "T3 construct": "gene CSNK1A1", "T3 sequence (P48729 2-337)": "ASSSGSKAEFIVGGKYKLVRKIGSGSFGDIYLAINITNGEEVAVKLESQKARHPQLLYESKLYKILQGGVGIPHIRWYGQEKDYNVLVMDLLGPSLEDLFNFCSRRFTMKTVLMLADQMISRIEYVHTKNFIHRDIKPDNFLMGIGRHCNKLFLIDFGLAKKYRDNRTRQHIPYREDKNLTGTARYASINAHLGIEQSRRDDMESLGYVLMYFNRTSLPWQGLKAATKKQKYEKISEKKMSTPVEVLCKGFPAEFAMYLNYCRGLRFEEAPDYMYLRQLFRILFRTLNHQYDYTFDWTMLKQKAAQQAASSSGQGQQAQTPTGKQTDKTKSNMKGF", "assay": "purified enzyme kinase assay"}, "Yck2 [2]": {"target": "T1, Yck2", "assay": "purified enzyme kinase assay; also NanoBRET ([…]) and MIB/MS competition"}, "Yck2 [3]": {"target": "T1, Yck2", "assay": "purified enzyme kinase assay"}},
  "data": [
    {"smiles": "CC(=O)c1cnc2ccc(-c3cc(Cl)c(O)c(Cl)c3)nc2c1N[C@H]1CC[C@H](CN(C)C)CC1", "note": "[OTS-167]", "values": [
      {"measurement": "IC50", "setting": "Yck2 [1]", "result": 0.13, "unit": "µM"}
    ]},
    {"smiles": "Cc1ccc2c(-c3ccncc3)c(-c3ccc(F)cc3)nn2c1", "note": "[GW, GW461484A]", "values": [
      {"measurement": "IC50", "setting": "p38α", "result": 0.17, "unit": "µM"}
    ]},
    {"smiles": "CN1CCC(F)(Cn2cnc(-c3ccc(F)cn3)c2-c2ccnc3[nH]ccc23)CC1", "note": "[MU1742]", "values": [
      {"measurement": "IC50", "setting": "CK1α", "result": 0.014, "unit": "µM"}
    ]},
    {"smiles": "Cc1n[nH]c2ccc(-c3cc(OC[C@@H](N)Cc4ccccc4)cnc3-c3ccoc3)cc12", "note": "[GSK, GSK507358A]", "values": [
      {"measurement": "IC50", "setting": "Yck2 [2]", "result": 0.16, "unit": "µM"}
    ]},
    {"smiles": "Cc1nc(N)sc1-c1ccnc(Nc2ccc(N3CCOCC3)cc2)n1", "note": "[Cyc-116]", "values": [
      {"measurement": "IC50", "setting": "Yck2 [3]", "result": 0.14, "unit": "µM"}
    ]}
  ]
}
